This is an account of results in US20080200539A1, “Topical antifungal treatment” (priority 2002, published 2008).

The nature of series [1]: pH of triacetin when applied to the skin. Format: physicochemical. The text has this: Triacetin also acts to decrease the pH of the application area It is known that fungus like moist areas and thrive in environments with a normal acidity, pH 6.5 to 7.2. Yeasts die in low pH environments, i.e. pH levels in the range of 4.5 or less, and infectious fungi are adversely affected in low pH environments. Triacetin has a pH of 4.0 when applied to the skin, and effectively lowers the pH of the application area. As triacetin breaks down after application, it produces acetic acid, a weak antifungal agent. Triacetin also acts to lower the moisture content in the application area, which aids in creating an adverse environment for fungal growth. In high concentrations, such as in this preparation, triacetin reduces the secretion of moisture during perspiration, due to an astringent effect, or antihyperhydrosis effect. Triacetin also acts to reduce moisture by bonding with the moisture available in the affected area, reducing the opportunity or availability of the moisture to be utilized by the fungal cells. After application, triacetin also coats the application area, saturating the epidermis and limiting moisture available for fungal growth. Finally, triacetin can also be used for nutritional support whether administered orally, topically or intravenously, to restore healthy, normal skin as is seen with the topical administration of this preparation.

Series [2] relates to superficial fungal infections of the skin. The settings on record: used alone; previous clinical studies by others; cited from earlier work.
The subject of series [3] is nails infected by dermatophytes. The settings on record: cited from earlier work.
In another series the test system is Microsporum gypseum. The settings on record: cited from earlier work.
A further series deals with Microsporum canis. The settings on record: cited from earlier work.
The next series relates to Microsporum audouini. Particulars: cited from earlier work.
The test system of a further series is Microsporum japonicum. Particulars: cited from earlier work.
The next series has as its system Trichophyton rubrum. The settings on record: cited from earlier work.
For series [4], the system named is Trichophyton mentagrophytes. Particulars: cited from earlier work.
Series [5] concerns Trichophyton schoenleinii. The settings on record: cited from earlier work.
In the next series the test system is Trichophyton tonsurans. The settings on record: cited from earlier work.
For a further series, the system named is Epidermophytom flocossum. Particulars: cited from earlier work.
A further series deals with Aspergillis niger. Particulars: cited from earlier work.
Series [6] can be described thus: Topical vitamin A on surgical incision area in post surgical patients. Format: in vivo. Particulars: 50,000 international units applied topically. The text has this:
Vitamin A is a fat soluble vitamin that is used in a wide dosage range from 5 to 50,000 I.U. to assist in healing. […] Vitamin A is also important for nutritional support. Vitamin D is also a fat soluble vitamin utilized in nutritional support. Vitamin D is not recommended in doses of over 6000 International Units per day. Topical applications with vitamin A and D have been used for years to enhance healing and repair damaged skin.

Take `CC(=O)OCC(COC(C)=O)OC(C)=O` [Triacetin]: the pH in series [1] worked out at 4.0. For the same compound, the “effectiveness as an antifungal agent” value in series [2] is listed as “only mildly effective”.
For the compound `CN(C/C=C/C#CC(C)(C)C)Cc1cccc2ccccc12` [terbinafine], the “duration of continuous daily intake needed to show some efficacy” value in series [3] is recorded as “three months or more”.
With `Cc1cccc(N(C)C(=S)Oc2ccc3ccccc3c2)c1` [tolnaftate], the in vitro activity result (in the series on Microsporum gypseum; with Microsporum canis; with Microsporum audouini; with Microsporum japonicum; in the series with Trichophyton rubrum; in series [4]) was “fungistatic or fungicidal” each time. Further, the in vitro activity result (in [5]; with Trichophyton tonsurans; in the series on Epidermophytom flocossum) was “fungistatic or fungicidal” each time. The “activity against Aspergillis niger” value with Aspergillis niger was “varies from one strain to another”.
As to Vitamin A, in [6], the healing time result is listed as “improved healing time”.
